# From publication PMC7377239, “Cardiovascular Effects of Polychlorinated Biphenyls and Their Major Metabolites” (Environmental Health Perspectives, 2020)
# Structures can show the parent of a compound that is named as a salt. Where two headings read alike, the source gives them in different places.
# What was measured:
# [1] = system: iCell endothelial cells (human iPSC-derived ECs); test: Tube formation (tubulogenesis) assay in iCell endothelial cells, 18 h; type: cell-based; conditions: Homo sapiens, Endothelial cell, 18 hr; for activity at 0.1 µM: 0.10 µM
# In short: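 iCell ECs (passages 1–5) seeded 7,500 cells/well on reduced-growth-factor Geltrex in starvation medium, exposed overnight at 37°C to compounds in triplicate concentration–response (0.5% DMSO vehicle). Calcein AM staining, 4× imaging, angiogenesis image analysis; readouts normalized to vehicle, four-parameter logistic fit, POD at 1 SD of vehicle; 100 μM assigned NOAEL if no response.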
# [2] = system: iCell endothelial cells (human iPSC-derived ECs); test: High-content imaging cytotoxicity in iCell endothelial cells, 24 h; type: cell-based; conditions: Homo sapiens, Endothelial cell, 24 hr; for viability at 0.1 µM / activity at 0.1 µM: 0.10 µM
# In short: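 Human iPSC-derived endothelial cells (passages 1–5) were grown to a fibronectin-coated monolayer, then exposed 24 h at 37 °C with 0.5% DMSO vehicle. Staining was Hoechst 33342, MitoTracker Orange and calcein AM, read by high-content imaging. Point of departure came from 4-parameter logistic fits, with a 1-SD vehicle cutoff and 100 µM as the top concentration.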
# [3] = iPSC-EC tube formation, 0.00 µM control = 100.00, read-out: endo.mtl.18hr
# [4] = iPSC-EC tube formation, 0.00 µM control = 100.00, read-out: endo.tlps.18hr
# [5] = iPSC-EC tube formation, 0.00 µM control = 100.00, read-out: endo.tta.18hr
# [6] = iPSC-EC tube formation, 0.00 µM control = 100.00, read-out: endo.ttl.18hr
# [7] = iPSC-EC, 0.00 µM control = 100.00, read-out: endo.cyto.24hr
# [8] = iPSC-EC, 0.00 µM control = 100.00, read-out: endo.mito.24hr
# [9] = iPSC-EC, 0.00 µM control = 100.00, read-out: endo.mitoint.24hr
# [10] = iPSC-EC, 0.00 µM control = 100.00, read-out: endo.nma.24hr
# [11] = iPSC-EC, 0.00 µM control = 100.00, read-out: endo.tc.24hrs
structure (smiles),measurement,setting,value
O=S(=O)(O)Oc1cc(Cl)ccc1-c1ccccc1 [2-yl PCB 3 sulfate],activity at 0.01 µM,[1]; [3],97.5%
same,activity at 0.01 µM,[1]; [4],97.8%
same,activity at 0.01 µM,[1]; [5],134%
same,activity at 0.01 µM,[1]; [6],124%
same,activity at 0.1 µM,[1]; [3],93.9%
same,activity at 0.1 µM,[1]; [4],117%
same,activity at 0.1 µM,[1]; [5],102%
same,activity at 0.1 µM,[1]; [6],93.2%
same,activity at 1 µM,[1]; [3],91.4%
same,activity at 1 µM,[1]; [4],118%
same,activity at 1 µM,[1]; [5],90.6%
same,activity at 1 µM,[1]; [6],83.8%
same,activity at 10 µM,[1]; [3],83.6%
same,activity at 10 µM,[1]; [4],89.9%
same,activity at 10 µM,[1]; [5],60.9%
same,activity at 10 µM,[1]; [6],58.8%
same,activity at 100 µM,[1]; [3],106%
same,activity at 100 µM,[1]; [4],86.3%
same,activity at 100 µM,[1]; [5],92.2%
same,activity at 100 µM,[1]; [6],89%
same,minimal effective concentration,"[1]; iPSC-EC tube formation, top concentration 100.00 µM, read-out: endo.mtl.18hr POD",100 µM
same,minimal effective concentration,"[1]; iPSC-EC tube formation, top concentration 100.00 µM, read-out: endo.tlps.18hr POD",100 µM
same,minimal effective concentration,"[1]; iPSC-EC tube formation, top concentration 100.00 µM, read-out: endo.tta.18hr POD",100 µM
same,minimal effective concentration,"[1]; iPSC-EC tube formation, top concentration 100.00 µM, read-out: endo.ttl.18hr POD",100 µM
same,viability at 0.01 µM,[2]; [7],93%
same,activity at 0.01 µM,[2]; [8],93.3%
same,activity at 0.01 µM,[2]; [9],114%
same,activity at 0.01 µM,[2]; [10],103%
same,viability at 0.01 µM,[2]; [11],93%
same,viability at 0.1 µM,[2]; [7],97.1%
same,activity at 0.1 µM,[2]; [8],97%
same,activity at 0.1 µM,[2]; [9],101%
same,activity at 0.1 µM,[2]; [10],100%
same,viability at 0.1 µM,[2]; [11],97.1%
same,viability at 1 µM,[2]; [7],97.8%
same,activity at 1 µM,[2]; [8],98.5%
same,activity at 1 µM,[2]; [9],104%
same,activity at 1 µM,[2]; [10],99.6%
same,viability at 1 µM,[2]; [11],97.8%
same,viability at 10 µM,[2]; [7],97.1%
same,activity at 10 µM,[2]; [8],97.8%
same,activity at 10 µM,[2]; [9],118%
same,activity at 10 µM,[2]; [10],99.1%
same,viability at 10 µM,[2]; [11],97.2%
same,viability at 100 µM,[2]; [7],102%
same,activity at 100 µM,[2]; [8],102%
same,activity at 100 µM,[2]; [9],99.3%
same,activity at 100 µM,[2]; [10],96.5%
same,viability at 100 µM,[2]; [11],102%
same,minimal effective concentration,"[2]; iPSC-EC, top concentration 100.00 µM, read-out: endo.cyto.24hr POD",100 µM
same,minimal effective concentration,"[2]; iPSC-EC, top concentration 100.00 µM, read-out: endo.mito.24hr POD",100 µM
same,minimal effective concentration,"[2]; iPSC-EC, top concentration 100.00 µM, read-out: endo.mitoint.24hr POD",100 µM
same,minimal effective concentration,"[2]; iPSC-EC, top concentration 100.00 µM, read-out: endo.nma.24hr POD",100 µM
same,minimal effective concentration,"[2]; iPSC-EC, top concentration 100.00 µM, read-out: endo.tc.24hrs POD",100 µM
"Clc1ccc(Cl)c(-c2c(Cl)ccc(Cl)c2Cl)c1 [PCB 95, 2,2′,3,5′,6-pentachlorobiphenyl]",minimal effective concentration,"[1]; endothelial cells (endo), tube formation mtl, read-out: POD endo.mtl.18hr",48.6 µM
same,minimal effective concentration,"[1]; endothelial cells (endo), tube formation tlps, read-out: POD endo.tlps.18hr",53.9 µM
same,minimal effective concentration,"[1]; endothelial cells (endo), tube formation tta, read-out: POD endo.tta.18hr",48.7 µM
same,minimal effective concentration,"[1]; endothelial cells (endo), tube formation ttl, read-out: POD endo.ttl.18hr",55.7 µM
same,minimal effective concentration,"[2]; endothelial cells (endo), cyto, read-out: POD endo.cyto.24hr",100 µM
same,minimal effective concentration,"[2]; endothelial cells (endo), mito, read-out: POD endo.mito.24hr",100 µM
same,minimal effective concentration,"[2]; endothelial cells (endo), mitoint, read-out: POD endo.mitoint.24hr",100 µM
same,minimal effective concentration,"[2]; endothelial cells (endo), nma, read-out: POD endo.nma.24hr",100 µM
same,minimal effective concentration,"[2]; endothelial cells (endo), tc, read-out: POD endo.tc.24hr",100 µM
